Literature values in patent US3981916A, “Reduction of nitroparaffin substrates to their corresponding oximes using a silver salt catalyst” (priority 1970, dated 1976).
Where two headings read alike, the source gives them in different places.

[1] = 25°C, aqueous solution, literature values (Table I)

For `CCCCN` [n-Butylamine], the “pKa (First Acid Dissociation Constant)” value (water) is given as 10.59.

For `NCCCNCCCN` [3,3'-iminobispropylamine], the “pKa (First Acid Dissociation Constant)” value (water) is given as 10.70.

For `OCCNCCO` [Diethanolamine], the “pKa (First Acid Dissociation Constant)” value (water) is listed as 9.35.

For `NCCCN` [1,3-diaminopropane], the “pKa (First Acid Dissociation Constant)” value (water) is listed as 10.54.

In the case of `CN(C)CCN(C)C` [N,N,N,N',-Tetramethyl-ethylenediamine], the “pKa (First Acid Dissociation Constant)” value (water) is listed as 5.85.

For `CCCCCCN` [n-Hexylamine], the “pKa (First Acid Dissociation Constant)” value (water) is given as 10.40.

For `NCCCCCCN` [1,6-diaminohexane], the “pKa (First Acid Dissociation Constant)” value (water) is given as 11.1.

For `CN(C)C(=N)N(C)C` [Tetramethylguanidine], the “pKa (First Acid Dissociation Constant)” value [1] is given as 11.50.

For `NCCN` [Ethylenediamine], the “pKa (First Acid Dissociation Constant)” value [1] is given as 9.98.

In the case of `NCCNCCNCCN` [Triethylenetetramine], the “pKa (First Acid Dissociation Constant)” value [1] is listed as 9.92.

For `NCCNCCNCCNCCN` [Tetraethylenepentamine], the “pKa (First Acid Dissociation Constant)” value (water) is given as 9.9.
